Laboratory results as given in patent US4218439A, “Peptide which inhibits gonadal function” (The Salk Institute for Biological Studies, priority 1978, dated 1980).

Tests used:
[1] = test system: release of luteinizing hormone and other gonadotropins by the pituitary gland; details: compared with Gly6 peptide; cited from earlier work
female rats = details: large and frequent dosages; cited from earlier work
[2] = test system: release of gonadotropins by the pituitary gland; assay: potency of the peptide compared with LRF; details: times more potent than LRF
Text: The peptide can be used as a contraceptive for male mammals. The peptide can be administered by any suitable and convenient method, such as orally, by injection or subcutaneously. The peptide can be combined with suitable pharmaceutically acceptable carriers or diluents, such as vegetable oil, sugars, polysaccharides and gums.

male rats [3] = assay: treatment of male rats with the peptide once a day: organ weights, plasma hormones, histology, fertility; type: in vivo, rat
Text: It has been determined that the treatment of male rats with 10 micrograms of the peptide once a day for 7 days results in a decrease in testis and seminal vesicle weight, spermatogenesis and plasma androgen levels. However, immunoreactive gonadotropin levels in the treated male animals were elevated relative to control animals.

male mammals = assay: effective dosage level and recovery after cessation of 7-day treatment; type: in vivo
Text: The peptide is used at a level effective to prevent reproduction by male mammals. It has been determined that the peptide of the invention is effective at levels as low as 0.5 microgram per kilogram of body weight per day for 7 days to reduce testes and seminal vesicle weights. […] Prostate weights recover in 2 weeks and seminal vesicle weights in 4 weeks. It is preferred to use dosage levels in the range of from about 0.5 to about 50 micrograms per kilogram of body weight per day. Higher levels can be used but no significant benefit is attained through use of higher levels.

male rats [4] = assay: treatment of male rats with the peptide once a day: organ weights, plasma hormones, histology, fertility; type: in vivo, rat; details: 10 μG peptide for 15 days (Table I)
[5] = following cessation of the injections
[6] = male rats, 10 micrograms once a day for 7 days
[7] = following cessation of treatment for 7 days

Compound: p--Glu--Trp--Ser--Tyr--D--Ala--Leu--Arg--Pro--Gly--NH2
- potency as an inhibitor for the release of gonadotropins relative to the same peptide with Gly in the 6-position [1]: 3 times

Compound: p--Glu--His--Trp--Ser--Tyr--Gly--Leu--Arg--Pro--Gly--NH2 (EHWSYGLRPG; pyroglutamyl N-terminus, C-terminal amide; printed: Glu--His--Trp--Ser--Tyr--Gly--Leu--Arg--Pro--Gly--) [LRF, hypothalamic hormone which acts as a releasing factor for LH; decapeptide]
- effect on gonadal function (female rats): inhibit gonadal function

Compound: CCNC(=O)[C@@H]1CCCN1C(=O)[C@H](CCCNC(=N)N)NC(=O)[C@H](CC(C)C)NC(=O)[C@@H](Cc1c[nH]c2ccccc12)NC(=O)[C@H](Cc1ccc(O)cc1)NC(=O)[C@H](CO)NC(=O)[C@H](Cc1c[nH]c2ccccc12)NC(=O)[C@H](Cc1c[nH]cn1)NC(=O)[C@@H]1CCC(=O)N1 [peptide, p--Glu--His--Trp--Ser--Tyr--D--Trp--Leu--Arg--Pro--NH--CH2 --CH3]
- potency relative to LRF [2]: about 150 times
- ability to cause fertilization (male rats [3]; [5]): incapable of causing fertilization
- ability to effect coitus (male rats [3]; [5]): capable of effecting coitus
- histological examination of the testes (male rats [3]; following the 7-day treatment, up to several weeks following cessation of daily injections): tubular damage, arrested spermatogenesis and degenerated Sertoli cells
- immunoreactive gonadotropin levels relative to control animals (male rats [3]; [6]): elevated
- testis and seminal vesicle weight, spermatogenesis and plasma androgen levels (male rats [3]; [6]): decrease
- time for prostate weights to recover (male mammals; [7]): 2 weeks
- time for seminal vesicle weights to recover (male mammals; [7]): 4 weeks
- time until testosterone levels comparable to those of control animals (male mammals; [7]): one
- level effective to reduce testes and seminal vesicle weights (male mammals; for 7 days): ≤ 0.5 microgram per kilogram of body weight per day
- Plasma DHT (male rats [4]): 151 ng/mL
- Plasma FSH (male rats [4]): 1582 ng/mL
- Plasma LH (male rats [4]): 561 ng/mL
- Plasma Test. (male rats [4]): 229 ng/mL
- Wt. Sem. V. (male rats [4]): 0.18 Grams
- Wt. Testis (male rats [4]): 1.33 Grams
